In patent US8476461B2, “Dipyrromethene-boron hydrophilic fluorescent compounds” (Centre National de la Recherche Scientifique (C.N.R.S.), priority 2008, dated 2013):
Marks after values point to notes of the source that are not given here.

Experiments:
[1] = Optical / fluorescence properties (absorption, emission, extinction coefficient, quantum yield, lifetime); format: physicochemical
[2] = Water solubility and hydrophilic nature; format: physicochemical; conditions: for solubility in water (in words): water at pH=7, in carboxylate form
[3] = asterisk: in water and PBS buffer

In the case of `CCC1=C(C)C2=C(c3ccc(I)cc3)c3c(C)c(CC)c(C)n3[B-](C#CCOCCOC)(C#CCOCCOC)[N+]2=C1C` [Ia-2], the Φ ([1]; in dichloromethane) is reported as 80%, the ε ([1]; in dichloromethane) is reported as 82000 M⁻¹ cm⁻¹ and the λabs ([1]; in dichloromethane) is reported as 522 nm. For the same compound, the λem ([1]; in dichloromethane) was 488 nm.
Compound `CCOC(=O)c1ccc(C2=C3C(C)=C(CC)C(C)=[N+]3[B-](C#CCOCCOC)(C#CCOCCOC)n3c(C)c(CC)c(C)c32)cc1` [Ia-6] has a Φ ([1]; in dichloromethane) of 85%, a ε ([1]; in dichloromethane) of 80000 M⁻¹ cm⁻¹ and a λabs ([1]; in dichloromethane) of 522 nm. It also gave a λem ([1]; in dichloromethane) of 488 nm.
In the case of `COCCOCC#C[B-]1(C#CCOCCOC)n2c(C)cc(C)c2C(c2ccc(C(=O)NCCN)cc2)=C2C(C)=CC(C)=[N+]21` [Ia-13], the Φ ([1]; in dichloromethane) is reported as 30%, the ε ([1]; in dichloromethane) is reported as 65000 M⁻¹ cm⁻¹ and the λabs ([1]; in dichloromethane) is reported as 500 nm. It also gave a λem ([1]; in dichloromethane) of 513 nm.
`COCCOCC#C[B-]1(C#CCOCCOC)n2c(C)cc(C)c2C(c2ccc(I)cc2)=C2C(C)=CC(C)=[N+]21` [Ia-1] gave a Φ ([1]; in dichloromethane) of 65%, a ε ([1]; in dichloromethane) of 90000 M⁻¹ cm⁻¹ and a λabs ([1]; in dichloromethane) of 500 nm. It also gave a λem ([1]; in dichloromethane) of 511 nm.
For `CCC1=C(C)C2=C(c3ccc(C#Cc4ccc5ccc6c(C(=O)OCCOCCOC)ccc7ccc4c5c76)cc3)c3c(C)c(CC)c(C)n3[B-](C#CC[N+](C)(C)CCCS(=O)(=O)[O-])(C#CC[N+](C)(C)CCCS(=O)(=O)[O-])[N+]2=C1C` [Ic-3], the “Fluorescence λem” value ([1]; EtOH) was 533 nm and the “Fluorescence φ” value ([1]; EtOH) was 39%.
In the case of `CCC1=C(C)C2=C(c3ccc(I)cc3)c3c(C)c(CC)c(C)n3[B-](C#CC[N+](C)(C)CCCS(=O)(=O)[O-])(C#CC[N+](C)(C)CCCS(=O)(=O)[O-])[N+]2=C1C` [Ic-1], the “Fluorescence λem” value ([1]; EtOH) is reported as 532 nm, the “Fluorescence φ” value ([1]; EtOH) is reported as 71% and the “fluorescence lifetime” value ([1]; H2O) is reported as 7.0 ns. The “Fluorescence λem” value ([1]; PBS buffer, 4.6×10^−7 M) was 530 nm, the “Fluorescence φ” value ([1]; PBS buffer, 4.6×10^−7 M) was 61% and the Φ [1, 3] was 61* %. For the same compound, the ε [1, 3] was 72000* M^−1 cm^−1, the λabs [1, 3] was 519* nm and the λem [1, 3] was 530* nm. For the same compound, the “water-soluble (in words)” value [2] was “water-soluble”.
In the case of `COCCOCC#C[B-]1(C#CCOCCOC)n2c(/C=C/c3ccc(OCCOCCOC)cc3)cc(C)c2C(c2ccc(C(=O)O)cc2)=C2C(C)=CC(C)=[N+]21` [Ia-12], the Φ [1, 3] is reported as 70* %, the ε [1, 3] is reported as 70000* M^−1 cm^−1 and the λabs [1, 3] is reported as 564* nm. For the same compound, the λem [1, 3] was 578* nm, the “water-soluble (in words)” value [2] was “water-soluble” and the “solubility in water (in words)” value [2] was “soluble in water”.
With `CCC1=C(C)C2=C(c3ccc(C(=O)O)cc3)c3c(C)c(CC)c(C)n3[B-](C#CCOCCOC)(C#CCOCCOC)[N+]2=C1C` [Ia-10] the Φ [1, 3] was 70* %, the ε [1, 3] was 65000* M^−1 cm^−1 and the λabs [1, 3] was 517* nm. For the same compound, the λem [1, 3] was 530* nm, the “water-soluble (in words)” value [2] was “water-soluble” and the “solubility in water (in words)” value [2] was “soluble in water”.
For `COCCOCC#C[B-]1(C#CCOCCOC)n2c(/C=C/c3ccc(OCCOCCOC)cc3)cc(C)c2C(c2ccc(C(=O)O)cc2)=C2C(C)=CC(/C=C/c3ccc(OCCOCCOC)cc3)=[N+]21` [Ia-11], the Φ ([1]; in dichloromethane) was 74%, the ε ([1]; in dichloromethane) was 118000 M⁻¹ cm⁻¹ and the λabs ([1]; in dichloromethane) was 647 nm. The λem ([1]; in dichloromethane) was 662 nm.
For `CCC1=C(C)C2=C(c3ccc(I)cc3)c3c(C)c(CC)c(C)n3[B-](C#CCN(C)C)(C#CCN(C)C)[N+]2=C1C` [Ic-0], the “ζ (fluorescence lifetime)” value ([1]; CH2Cl2) was 6.6 ns, the “Fluorescence λem” value ([1]; CH2Cl2, 6.1×10^−7 M) was 533 nm and the “Fluorescence φ” value ([1]; CH2Cl2, 6.1×10^−7 M) was 48%.
With `CCOC(=O)c1ccc(C2=C3C(C)=C(CC)C(C)=[N+]3[B-](C#CC[N+](C)(C)CCCS(=O)(=O)[O-])(C#CC[N+](C)(C)CCCS(=O)(=O)[O-])n3c(C)c(CC)c(C)c32)cc1` [Ic-2] the “Fluorescence λem” value ([1]; EtOH) was 533 nm and the “Fluorescence φ” value ([1]; EtOH) was 45%.
`CCOC(=O)CNC(=O)c1ccc(C2=C3C(C)=CC(C)=[N+]3[B-](C#CCOCCOC)(C#CCOCCOC)n3c(C)cc(C)c32)cc1` [Ia-14] gave a Φ ([1]; in dichloromethane) of 80%, a ε ([1]; in dichloromethane) of 84000 M⁻¹ cm⁻¹ and a λabs ([1]; in dichloromethane) of 501 nm. For the same compound, the λem ([1]; in dichloromethane) was 511 nm.
`COCCOCC#C[B-]1(C#CCOCCOC)n2c(/C=C/c3ccc(OCCOCCOC)cc3)cc(C)c2C(c2ccc(I)cc2)=C2C(C)=CC(/C=C/c3ccc(OCCOCCOC)cc3)=[N+]21` [Ia-3] gave a Φ ([1]; in dichloromethane) of 75%, a ε ([1]; in dichloromethane) of 126600 M⁻¹ cm⁻¹ and a λabs ([1]; in dichloromethane) of 646 nm. It also gave a λem ([1]; in dichloromethane) of 371 nm.
With `COCCOCC#C[B-]1(C#CCOCCOC)n2c(C)cc(C)c2C(c2ccc(C(=O)O)cc2)=C2C(C)=CC(C)=[N+]21` [Ia-9] the Φ [1, 3] was 60* %, the ε [1, 3] was 74000* M^−1 cm^−1 and the λabs [1, 3] was 494* nm. The λem [1, 3] was 506* nm, the Φ ([1]; in dichloromethane) was 50% and the ε ([1]; in dichloromethane) was 78500 M⁻¹ cm⁻¹. For the same compound, the λabs ([1]; in dichloromethane) was 501 nm, the λem ([1]; in dichloromethane) was 513 nm and the “water-soluble (in words)” value [2] was “water-soluble”. For the same compound, the “solubility in water (in words)” value [2] was “soluble in water”.
In the case of `COCCOCC#C[B-]1(C#CCOCCOC)n2c(C)cc(C)c2C(c2ccc(C(=O)NCC(=O)O)cc2)=C2C(C)=CC(C)=[N+]21` [Ia-15], the Φ [1, 3] is reported as 50* %, the ε [1, 3] is reported as 62000* M^−1 cm^−1 and the λabs [1, 3] is reported as 495* nm. For the same compound, the λem [1, 3] was 507* nm, the Φ ([1]; in dichloromethane) was 60% and the ε ([1]; in dichloromethane) was 67000 M⁻¹ cm⁻¹. The λabs ([1]; in dichloromethane) was 501 nm, the λem ([1]; in dichloromethane) was 511 nm and the “water-soluble (in words)” value [2] was “water-soluble”.
